Drawing on patent US20240327401A1, “FUSED RING COMPOUND, PHARMACEUTICAL COMPOSITION, AND APPLICATION THEREOF” (EVOPOINT BIOSCIENCES CO., LTD., priority 2021, published 2024), this text covers IC50 for 28 molecules.

Experiment [1] deals with ERK phosphorylation in DLD-1 cells. As to the kind of experiment: In-cell Western blot assay for ERK phosphorylation in DLD-1 cells. Format: cell-based. The settings on record: Homo sapiens, p-ERK signal corrected using DMSO and BI-3406, four-parameter fit. Here is the method:
Efficacy Example 1: In-cell Western Blot Assay for ERK Phosphorylation in DLD-1 Cells
DLD-1 cells (ATCC, CCL-221) were thawed and cultured in a culture medium containing RPMI1640 (Gibco, A10491-01), 10% fetal bovine serum (FBS) (Transgene, FS201-02) and 1% antibiotic P/S (Gibco, 15140-122) for 3 days until the cell viability was good. The cells were inoculated into a 384-well plate and incubated at 37° C. with 5% CO2 overnight. A test compound, a positive control compound, and a negative control were added. The compound was at concentrations of 10000 nM to 1.52 nM (3-fold dilution) and […], for a total of 10 concentrations. The mixture was well mixed and incubated at 37° C. with 5% CO2. The cells were washed twice with PBS (Solarbio, P1010), and then a blocking buffer was added. After 1 h of blocking at room temperature, a primary antibody mixture (phospho-p44/42 MAPK (T202/Y204) Rabbit mAb (CST, […]), GAPDH (D4C6R) Mouse mAb) (CST, 97166S) was added, followed by overnight incubation at 4° C. The cells were washed 3 times with PBST (PBS containing 0.05% Tween-20 (Solarbio, T8220)), and a secondary antibody mixture (goat anti rabbit 800CW (LI-COR, 926-32211), goat anti mouse 680RD (LI-COR, 926-68070)) was added, followed by incubation at room temperature in the dark. The 384-well plate was reversed and centrifuged at 1000 rpm for 1 min, and read on an Odyssey CLx fluorescence imaging system (LI-COR) to obtain fluorescence signal values, which were corrected using DMSO and BI-3406.
[formula] • H=Ave (DMSO) • L=Ave (BI-3406) • SD (H)=STDEV (DMSO) • SD (L)=STDEV (BI-3406)
The IC50 values of the compounds were calculated using a four-parameter fitting algorithm, specifically as follows:
[formula] • X: Log of cpd concentration • Y: Ave (relative pERK) • Top and Bottom: Plateaus in same units as Y • log IC50: same log units as X • HillSlope: Slope factor or Hill slope.

For experiment [2], the target named is T1, SOS1/KRAS G12C protein binding (Homo sapiens, UniProt Q07889).
T1 construct: His-SOS1 (aa 564-1049) protein; purchased Pharmaron Beijing Co., Ltd. 20200717 (His-SOS1); 20200707 (KRAS G12C)
T1 sequence (Q07889 564-1049): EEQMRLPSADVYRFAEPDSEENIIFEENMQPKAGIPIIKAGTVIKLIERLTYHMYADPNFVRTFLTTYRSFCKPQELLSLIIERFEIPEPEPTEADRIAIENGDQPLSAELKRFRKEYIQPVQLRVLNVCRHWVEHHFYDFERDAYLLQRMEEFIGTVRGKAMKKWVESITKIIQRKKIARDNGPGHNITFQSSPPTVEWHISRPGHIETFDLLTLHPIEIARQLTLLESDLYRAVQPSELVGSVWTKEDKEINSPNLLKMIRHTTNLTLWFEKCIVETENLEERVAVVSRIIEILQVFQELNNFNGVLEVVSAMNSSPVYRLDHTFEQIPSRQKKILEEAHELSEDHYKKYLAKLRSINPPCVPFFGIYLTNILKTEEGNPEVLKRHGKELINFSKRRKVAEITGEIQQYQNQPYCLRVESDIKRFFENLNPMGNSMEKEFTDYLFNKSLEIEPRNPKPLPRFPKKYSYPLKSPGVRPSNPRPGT
As to the kind of experiment: Inhibition of SOS1/KRAS G12C protein binding (665 nm/615 nm ratio). The settings on record: 15 nM KRAS G12C (aa 1-169), 2.5 nM His-SOS1 (aa 564-1049); nonlinear regression. Here is the method: Efficacy Example 2: Evaluation of Inhibition of SOS1/KRAS G12C Protein Binding
A test compound was dissolved in 100% DMSO to give a solution at a concentration of 10 mM. 10 μL of the solution was taken and 3-fold diluted with 100% DMSO to prepare test compound solutions with concentrations of 10000 nM to […], for a total of 11 concentrations. The compound solutions at different concentrations were then transferred to a 384-well plate at 0.1 μL/well using a sonic droplet device Echo (Labcyte), and 2 replicate wells were set for each concentration.
A 15 nM KRAS G12C (aa 1-169) protein (Pharmaron Beijing Co., Ltd., 20200707) was transferred to the 384-well reaction plate at 5 μL/well using the sonic droplet device Echo (Labcyte), and then the reaction plate was centrifuged in a centrifuge (Eppendorf, 5810R) at 1000 rpm/min for 1 min.
A 2.5 nM His-SOS1 (aa 564-1049) protein (Pharmaron Beijing Co., Ltd., 20200717) was transferred to the 384-well reaction plate at 5 μL/well using the sonic droplet device Echo (Labcyte), and then the reaction plate was centrifuged in a centrifuge (Eppendorf, 5810R) at 1000 rpm/min for 1 min and incubated at 25° C. for 15 min.
A mixed solution of Antibody 1 (MAb Anti-6his-Tb cryptate Gold, Cisbio, 61HI2TLA) and Antibody 2 (MAb Anti-GST-XL665, Cisbio, 61GSTXLA) was transferred to the 384-well reaction plate at 10 μL/well using the sonic droplet device Echo (Labcyte), and then the reaction plate was centrifuged in a centrifuge (Eppendorf, 5810R) at 1000 rpm/min for 1 min and incubated at 25° C. for 120 min.
The 665 nm/615 nm optical density ratio was read using an Envision multifunctional microplate reader (Perkin Elmer, Envision 2104).
Analysis of Original Data:
The IC50 values of the compounds were fitted by a nonlinear regression equation of Graphpad Prism 8. The results are shown in Table 2: • Negative control: DMSO
The IC50 (half maximal inhibitory concentration) values of the compounds were calculated using the following non-linear fitting equation:
[formula] • X: Log of cpd concentration • Y: 665 nm/615 nm ratio

As a reminder, the IC50 is the midpoint of a concentration-inhibition curve. With `Cc1nc(N[C@H](C)c2cccc(C(F)(F)F)c2C)c2cn(C3(C)CC3)c(=O)c(S(C)(=O)=O)c2n1` [SZ-022371], the IC50 is 274 nM in experiment [1] and 21.8 nM in experiment [2].
With `CCOc1c(=O)n(C2(C)CC2)cc2c(N[C@H](C)c3cccc(C(C)(F)F)c3F)nc(C)nc12` [SZ-022359], the figures for the IC50 in experiment [1] and in experiment [2] were 231 nM and 8.57 nM, respectively.
The like results for `COc1c(=O)n(C2(C(F)F)CC2)cc2c(N[C@H](C)c3cccc(C(F)F)c3C)nc(C)nc12` [SZ-022302] were, in that order, 104 nM and 3.79 nM.
With `COc1c(=O)n(C2(C)CCOC2)cc2c(N[C@H](C)c3cccc(C(F)F)c3F)nc(C)nc12` (some centres unmarked) [SZ-022328], the results for the IC50 in experiment [1] and in experiment [2] were 309 nM and 9.7 nM, respectively.
For the molecule `CCOc1c(=O)n(C2(C(F)(F)F)CC2)cc2c(N[C@H](C)c3cccc(C(F)(F)F)c3C)nc(C)nc12` [SZ-022340], the IC50 is 367 nM in experiment [1] and 15.2 nM in experiment [2].
As for `Cc1nc(N[C@H](C)c2cccc(C(F)F)c2F)c2cn(C3(C(F)F)CC3)c(=O)c(OC(C)C)c2n1` [SZ-022313], the half-maximal inhibitory concentration (IC50) was found to be 1270 nM in experiment [1] and 44 nM in experiment [2].
The like results for `CCOc1c(=O)n(C2(C)CC2)cc2c(N[C@H](C)c3cccc(C(F)F)c3F)nc(C)nc12` [SZ-022364] were, in that order, 303 nM and 22.2 nM.
The like results for `COc1c(=O)n(C23CC(C2)C3)cc2c(N[C@H](C)c3cccc(C(F)F)c3F)nc(C)nc12` [SZ-022345] were, in that order, 885 nM and 21.8 nM.
Turning to `COc1c(=O)n(C2(C(F)F)CC2)cc2c(N[C@H](C)c3cccc(C(F)(F)F)c3F)nc(C)nc12` [SZ-022349], the IC50 in experiment [1] stood at 193 nM; in experiment [2] it was 7.23 nM.
For `CCOc1c(=O)n(C2(C(F)(F)F)CC2)cc2c(N[C@H](C)c3cccc(C(C)(F)F)c3F)nc(C)nc12` [SZ-022360], in that order: 221 nM and 9.46 nM.
For the molecule `COc1c(=O)n(C2(C)CC2)cc2c(N[C@H](C)c3cccc(C(C)(F)F)c3F)nc(C)nc12` [SZ-022356], the IC50 in experiment [1] is 218 nM; in experiment [2] it was 4.36 nM.
Turning to `COc1c(=O)n(C2(C(F)(F)F)CC2)cc2c(N[C@H](C)c3cccc(C#N)c3C)nc(C)nc12` [SZ-022383], the IC50 worked out at 985 nM in experiment [1] and 18.4 nM in experiment [2].
The like results for `COc1c(=O)n(C2(CF)CC2)cc2c(N[C@H](C)c3cccc(C(F)F)c3F)nc(C)nc12` [SZ-022301] were, in that order, 262 nM and 6.5 nM.
Regarding `CCOc1c(=O)n(C2(C)CC2)cc2c(N[C@H](C)c3cccc(C(F)(F)F)c3C)nc(C)nc12` [SZ-022341], the figures for the IC50 in experiment [1] and in experiment [2] were 161 nM and 7.76 nM, respectively.
The like results for `COc1c(=O)n(C2(C)CC2)cc2c(N[C@H](C)c3cccc(C(F)F)c3F)nc(C)nc12` [SZ-022300] were, in that order, 412 nM and 12.1 nM.
On to `COc1c(=O)n(C2(C(F)F)CC2)cc2c(N[C@H](C)c3cccc(C(F)(F)C(C)(C)O)c3F)nc(C)nc12` [SZ-022317], for which the results for the IC50 in experiment [1] and in experiment [2] were 371 nM and 4.54 nM, respectively.
`CCOc1c(=O)n(C2(CF)CC2)cc2c(N[C@H](C)c3cccc(C(C)(F)F)c3F)nc(C)nc12` [SZ-022361]: the IC50 in experiment [1] is 164 nM; in experiment [2], 4.62 nM.
The like results for `COc1c(=O)n(C2(C(F)F)CC2)cc2c(N[C@H](C)c3cccc(C#N)c3C)nc(C)nc12` [SZ-022381] were, in that order, 741 nM and 12.3 nM.
Consider `Cc1nc(N[C@H](C)c2cccc(C(F)F)c2F)c2cn(C3(C(F)F)CC3)c(=O)c(O[C@@H]3CCOC3)c2n1` [SZ-022353], for which the IC50 in experiment [1] turned out to be 377 nM; in experiment [2], 17.5 nM.
For `COc1c(=O)n(C2(C(F)F)CC2)cc2c(N[C@H](C)c3cccc(C(F)(F)F)c3)nc(C)nc12` [SZ-022348], in that order: 614 nM and 21.8 nM.
The like results for `[2H]C([2H])([2H])Oc1c(=O)n(C2(C(F)(F)F)CC2)cc2c(N[C@H](C)c3cccc(C#N)c3C)nc(C)nc12` [SZ-022384] were, in that order, 884 nM and 15.4 nM.
As for `Cc1nc(N[C@H](C)c2cccc(C(F)F)c2F)c2cn(C3(C(F)F)CC3)c(=O)c(O[C@H]3CCOC3)c2n1` [SZ-022351], the values for the IC50 in experiment [1] and in experiment [2] were 555 nM and 21.4 nM, respectively.
For `COc1c(=O)n(C2(C(F)(F)F)CC2)cc2c(N[C@H](C)c3cccc(C(F)F)c3F)nc(C)nc12` [SZ-022325], in that order: 216 nM and 15.9 nM.
For `COc1c(=O)n(C2(C(F)F)CC2)cc2c(N[C@H](C)c3ccc(-c4ccccc4CN(C)C)s3)nc(C)nc12` [SZ-022373], in that order: 42 nM and 1.4 nM.
The like results for `CCOc1c(=O)n(C2(CF)CC2)cc2c(N[C@H](C)c3cccc(C(F)(F)F)c3C)nc(C)nc12` [SZ-022342] were, in that order, 57 nM and 7.15 nM.
As for `COc1c(=O)n(C2(C(F)F)CC2)cc2c(N[C@H](C)c3cccc4c(F)coc34)nc(C)nc12` [SZ-022330B], the IC50 in experiment [1] was determined as 400 nM; in experiment [2] it was 9.99 nM.
The like results for `CCOc1c(=O)n(C2(C(F)F)CC2)cc2c(N[C@H](C)c3cccc(C(F)(F)F)c3C)nc(C)nc12` [SZ-022339] were, in that order, 186 nM and 7.25 nM.
Regarding `COCC1(n2cc3c(N[C@H](C)c4cccc(C(F)F)c4F)nc(C)nc3c(OC)c2=O)CC1` [SZ-022346], the half-inhibitory concentration (IC50) in experiment [1] amounted to 1020 nM; in experiment [2], 30 nM.
